From patent publication US20120196766A1, “Therapeutic Use of Farnesyltransferase Inhibitors and Methods of Monitoring the Efficacy Thereof” (priority 2004, published 2012)
Like-named read-outs stand apart in the source and are kept apart here.

How the values were obtained:
THP-1 cells [1] = test: LPS-induced cytokine, chemokine and MMP-9 secretion by THP-1 cells (ELISA); type: cell-based, Human
Protocol: THP-1 cells were cultured in RPMI1640 medium, supplemented with 10% FBS/100 units/ml Penicillin/10 μg/ml Streptomycin at 37° C., under 5% CO2. […] For the untreated control group (no LPS, no compound) and LPS alone group, equivalent volumes of DMSO were added to the medium. Cells were cultured at 37° C. and pellets were collected at 0 hr, 1 hr, 3 hr, 6 hr, 12 hr & 24 hr. Cell pellets were stored at −80° C. if RNA isolation was not conducted immediately. For experiments to study cytokine secretion in culture supernatants, THP-1 cells were washed twice with PBS, resuspended at 3.4×10^5/ml and cultured in 96-well plates at 250 μL, per well at 37° C. […] Supernatants were collected at different time points as indicated in the figures and were kept at ≦−20° C. until analysis of cytokine production.
(§1) Human IL-6, IL18, IL1β, MCP-1, MMP-9, and mouse IL-6, IL18, TNFα, MCP-1 and IL-1β were measured with ELISA kits (R&D Systems) according to the manufacturer's instructions.
(§2) Samples were tested for cytokines using the Bio-plex cytokine assay kit (Bio-Rad Laboratories, Inc.) according to the manufacturer's instructions. Briefly, 50 μL anti-cytokine antibody conjugated beads were added to wells of a filter plate pre-equilibrated with assay buffer. The beads were washed, then 50 μL of undiluted cell culture supernatant or 4-fold diluted plasma samples were added and incubated for 2 hours. Biotinylated anti-cytokine antibody (25 μL) was added to each well and the plate was incubated with shaking for 1.5 hours. Streptavidin-PE (50 μL) was added to each well and the plate was incubated with shaking for 45 min. between incubations, wells were washed 3 times with 100 μL wash buffer and unbound analytes were filtered using a vacuum manifold. Following the last wash step, 125 μL of assay buffer was added to each well and the plate was placed on a shaker for 10 min. The plate was read on a Luminex^100 instrument (Luminex Corporation, Austin, Tex.) according to the manufacturer's instructions. The concentration of cytokine was determined from a standard curve assayed at the same time.

THP-1 cells [2] = test: Inhibition of LPS-induced IL-6 release in THP-1 cells, concentration series; type: cell-based; details: Homo sapiens, 100 ng/ml LPS, 0.5% FBS, supernatants at 48 hr, read-out: IC50 for inhibition of LPS-induced IL-6 secretion
Protocol: THP-1 cells at 3.4×10^5/ml were cultured in 96-well plates in 0.5% FBS/RPMI 1640, in the absence or presence of 100 ng/ml LPS, plus or minus tipifarnib (starting from 5 μM, followed by 3-fold series dilution). The concentrations of tipifarnib were: 5 μM, 1.67 μM, 0.56 μM, 0.19 μM and 0.06 μM. Supernatants were collected at 48 hr. IL6 was quantified using ELISA kit from R&D Systems.
Medium components were certified to contain less than 0.3 endotoxin units/ml. THP-1 cells at 3.4×10^5/ml were cultured in 96-well plates in 0.5% FBS/RPMI 1640, in the absence or presence of 100 ng/ml LPS plus or minus tipifarnib (starting from 5 μM, followed by 3-fold series dilution). The concentrations of tipifarnib were: 5 μM, 1.67 μM, 0.56 μM, 0.19 μM and 0.06 μM. Supernatants were collected at 48 hr. IL6 was tested using ELISA kit from R&D Systems.

BALB/c mice = test: LPS-induced cytokine production in vivo (murine model of LPS-induced inflammation); details: for inhibition at 50 mg/kg: Mus musculus; for MCP-1 production: tipifarnib
Protocol: The experiments were performed on female BALB/c mice (6-7 week old; Charles River Laboratories, Inc. MA). […] The control mice received the vehicle (20% cyclodextran) only. 20 μg LPS (Sigma), diluted in PBS, was injected into each mouse intraperitoneally. Blood samples were collected either by eye bleeding or cardiac puncture at 1 and 2 hours after LPS injection in one experiment, and at 2 and 3 hours after LPS injection in a second experiment. Plasma samples were collected by centrifugation, and stored at ≦−20° C. before being tested for cytokines using individual ELISA kits or Luminex analysis (see below).
as §1, §2

[3] = test system: NF-κB-LH transfected HEK293 cells; test: NF-κB reporter gene assay; type: cell-based; details: tipifarnib 2 or 5 μM for 18 hours, TNF-α 10 ng/ml for 4 hours
Protocol: HEK293 cells were transfected with the NF-κB-LH plasmid (Biomyx) using Lipofectamine 2000, and stable clones were selected by culture in hygromycin (176 μg/ml). The resulting NF-κB-LH-transfected cells were seeded in DMEM/10% FCS in 96-well plates for use in luciferase reporter assays. On the following day, cells were treated with tipifarnib for 18 hours, then stimulated with TNF-α (10 ng/ml) for 4 hours, after which NF-κB activity was measured using the Steady-Glo® luciferase reporter assay system (Promega). NF-κB activation was calculated as the fold-induction by TNF-α over unstimulated control samples.

[4] = second experiment, 3 hours (results not shown)

For `Cn1cncc1C(N)(c1ccc(Cl)cc1)c1ccc2c(c1)c(-c1cccc(Cl)c1)cc(=O)n2C` (single isomer, unassigned; (+)) [tipifarnib, (+)-6-[amino(4-chlorophenyl)(1-methyl-1H-imidazol-5-yl)methyl]-4-(3-chlorophenyl)-1-methyl-2(1H)-quinolinone], which “LPS-induced TNF-α production, second phase of induction” value (THP-1 cells [1]; after 22 h up to 48 hours) is on record?
The value was “dose-dependent inhibition”.

And the “LPS-induced TNF-α production, initial peak” value (THP-1 cells [1]; between 5 and 10 hours)?
The value was “unaffected”.

What about the “LPS-induced IL-8 production” value (THP-1 cells [1]; simvastatin 5 and 10 μM or tipifarnib 2 and 5 μM, 22, 30 and 48 hours) of the same molecule?
The value was “no significant inhibition of IL-8 production, except for 5 μM at 22 hours”.

What about the “LPS-induced MMP-9 secretion” value (THP-1 cells [1]; simvastatin 5 and 10 μM or tipifarnib 2 and 5 μM, 30 and 48 hours) of the same molecule?
Its value is “dose-dependently inhibited”.

What about the “extent of inhibition of MCP-1 secretion compared with 10 μM simvastatin” value (THP-1 cells [1]; tipifarnib 2 μM) of the same molecule?
The value was “much greater”.

And the “LPS-induced TNF-α production, second phase of induction” value (THP-1 cells [1]; tipifarnib 5 μM)?
Its value is “totally inhibited”.

And the IL-1β secretion (THP-1 cells [1]; tipifarnib 2 and 5 μM)?
Its IL-1β secretion is “dose-dependent inhibition”.

And the “inhibition of IL-6 release” value (THP-1 cells [1]; tipifarnib 2 and 5 μM)?
Its value is “inhibition was observed at all time points”.

And the MCP-1 secretion (THP-1 cells [1]; tipifarnib 2 and 5 μM, up to 48 hours)?
The MCP-1 secretion was “dose-dependent inhibition”.

And the IC50 (THP-1 cells [2])?
Its IC50 is about 1000 nM.

What about the “LPS-induced TNF-α production” value (BALB/c mice; 50 mg/kg oral 24, 17 and 1 hour before LPS 20 μg i.p., plasma at 1 and 2 hours) of the same molecule?
The value was “highly significant inhibition”.

And the inhibition at 50 mg/kg (BALB/c mice; 50 mg/kg oral before LPS, 2 hours, first experiment, read-out: inhibition of MIP-1α production)?
Its inhibition at 50 mg/kg is about 50%.

And the inhibition at 50 mg/kg (BALB/c mice; tipifarnib 50 mg/kg oral before LPS, after 3 hours, read-out: inhibition of IL-6 production)?
Its inhibition at 50 mg/kg is about 50%.

What about the “LPS-induced IL-8” value (BALB/c mice; results not shown) of the same molecule?
The value was “No effects”.

And the “LPS-induced RANTES” value (BALB/c mice; results not shown)?
The value was “No effects”.

And the “IL12-p40 induction by LPS” value (BALB/c mice; [4])?
Its value is “inhibited”.

And the “IL12-p70 induction by LPS” value (BALB/c mice; [4])?
The value was “inhibited”.

What about the IL-1β production (BALB/c mice; tipifarnib 50 mg/kg oral before LPS, after 3 hours) of the same molecule?
Its IL-1β production is “almost complete inhibition”.

And the MCP-1 production (BALB/c mice; 2 hours)?
Its MCP-1 production is “significant inhibition”.

And the MCP-1 production (BALB/c mice; 3 hours)?
The MCP-1 production was “a decrease that did not reach statistical significance”.

What about the “TNF-α induced NF-κB activity” value [3] of the same molecule?
Its value is “not inhibited”.
